Broadly, the melting point is the temperature, or range, at which the solid turns liquid.

Some results are limits rather than exact numbers.

The results in this text go back to a melting point compilation (Tetko et al.; mined from patent text by program, amines drawn as free bases though some values may be those of a salt).

The compound `Cc1ccnc2c(N)cc(F)cc12` had a melting point of 100 to 101 °C.

As for `CC(C)(C)NCCOc1ccccc1CCCc1cccc2[nH]ccc12`, the melting point was 114 °C.

`Cc1cc(C)cc(OC(C)(C)C(=O)O[C@H]2C[C@H](O)C=C3C=C[C@H](C)[C@H](CC[C@@H]4C[C@@H](O)CC(=O)O4)[C@H]32)c1` registered a melting point of 129 to 131 °C.

`Cc1nc(O)c([N+](=O)[O-])c(N2CCc3ccccc3CC2)n1` came in with a melting point above 200 °C.

In turn, `CCOC(=O)COc1ccc(/C=C/c2nc3c(c(=O)n(CC)c(=O)n3CC)n2C)cc1` displayed a melting point of 192 °C.

For the compound `COc1ccc(-n2nc3c4c([nH]cc-3c2=O)CCCCCCCC4)cc1`, the melting point is 143 to 150 °C.

Compound `Cn1c(COc2ccc(CC3SC(=O)NC3=O)cc2)nc2ccc(Oc3cccc(NC(=O)Nc4ccc(F)cc4)c3)cc21` (stereo not drawn) came in with a melting point of 169 to 171 °C.

Take `CCN(c1nc(C)cc(N2CCSCC2)n1)c1ccc(C(C)C)cc1I`: the melting point was 51 to 53 °C.

For `Cc1ccc(S(=O)(=O)OCC2Cc3cccc(Br)c3O2)cc1` (stereo not drawn), the melting point is 120 to 122 °C.

Regarding `O=C(CCCCCc1cccc2cncn12)NO`, the melting point was in the range of 138 to 140 °C.

Turning to `CCOCc1nc2c(N)nc(C)c(C)c2n1CCCNC(=O)N1CCOCC1`, the melting point is 140 to 142 °C.

As for `COCCCCCCOc1ccc(C#Cc2ccc(C(=O)O)cc2)cc1C12CC3CC(CC(C3)C1)C2`, the melting point lay within 241 to 242 °C.

In turn, `CCOc1cc(O)c(C(=O)C=Cc2ccc(OC)cc2)c(OC)c1` showed a melting point of 122 °C.

`Nc1cscc1NC(=S)Nc1c(Cl)cccc1Cl`: the melting point was found to be 165 °C.

The compound `COc1nc(NC(=O)NS(=O)(=O)c2cccc3cccnc23)nc(OC)n1` yielded a melting point of 151 to 153 °C.

For the compound `COC(=O)c1ccc(CN([C@@H](CO)Cc2ccccc2)S(=O)(=O)c2ccc(Cl)cc2)cc1`, the melting point was 128 to 130 °C.

In turn, `CSc1ccc(Br)c2c1C1=NOCC1C2` (stereo not drawn) had a melting point of 127 to 135 °C.

Compound `O=Cc1cc(Cc2ccccc2)ccc1O` came in with a melting point of 78 to 79 °C.

As to `NS(=O)(=O)c1cc(Br)ccc1F`, the melting point fell in the range of 153 to 154 °C.

In the case of `O=c1cc(-c2ccncc2)nc2[nH]c3ccccc3n12`, the melting point is 300 to 302 °C.

Take `CN1C(=O)C(NC(=O)Nc2ccccc2)C(=O)N(CC23CC4CC(CC(C4)C2)C3)c2ccccc21` (single isomer, unassigned; (-)): the melting point fell in the range of 173 to 178 °C.

The compound `O=C1COC(c2ccccc2)(c2ccccc2)CCN1Cc1ccccc1` returned a melting point of 185 to 186 °C.

The compound `N#CNc1nc2c(s1)Cc1cc(Cl)ccc1-2` came in with a melting point of 225 °C.

Compound `CCCCCCCCCCCCCCCCNc1ccc(C(=O)OCC(COC(C)=O)OC(C)=O)cc1` (stereo not drawn) showed a melting point of 68 °C.

On to `CS(=O)(=O)c1ccc(-c2cnn(-c3ccc(F)c(F)c3)c(=O)c2Cc2cccc(F)c2)cc1`, for which the melting point was in the range of 161 to 163 °C.

Compound `CC(C)(C)OC(=O)Nc1cc(C(=O)NN)ccn1` had a melting point of 289 to 290 °C.

`Nc1c([N+](=O)[O-])cnn1-c1c(Cl)cc(C(F)(F)F)c(F)c1Cl` showed a melting point of 156 °C.

On to `COc1ccccc1N1CCN(CCC2C(=O)NCN3CCC4SC=C(C4=O)C(=O)C23)CC1` (stereo not drawn), for which the melting point fell in the range of 162 to 164 °C.

In the case of `CCn1c(=O)oc2cc(N3C[C@H](C(=O)NC)OC3=O)ccc21`, the melting point was in the range of 263 to 265 °C.

For the compound `CCON=C(C(=O)OCC)c1csc(N)n1`, the melting point came to 129 °C.

As to `Nc1nc(=O)n(CCCN2CCN(C(c3ccccc3)c3ccccc3)CC2)c2ccccc12`, the melting point lay within 190 to 196 °C.

Consider `CCOC(=O)Cn1c(=O)[nH]c2ccc(C(=O)c3c(-c4ccccc4)c(OC)c4ccccn34)cc2c1=O`, for which the melting point was 221 °C.

As for `CCCCCCCCCCc1ccnc(C(=O)NCCCCC(=O)O)c1`, the melting point lay in the range of 54 to 56 °C.

As to `CC#CCOc1ccc(S(=O)[C@@H](C(=O)NO)c2ccc(-c3cccs3)cc2)cc1` (stereo partly drawn), the melting point was 158 °C.

For the compound `CCc1noc(-c2cn(-c3cccc(OCc4ccc(Cl)cc4)c3)cn2)n1`, the melting point fell in the range of 137 to 138 °C.

As for `c1ccc(CCN2CCC(c3n[nH]c4c3CCc3ccccc3-4)CC2)cc1`, the melting point fell in the range of 151 to 152 °C.

Compound `COC(=O)Cc1ccc(OCCNC(=O)C2Cc3c(OC)cccc3N2S(=O)(=O)c2ccc(-c3cccc(C(F)(F)F)c3)cc2)cc1` (stereo not drawn) came in with a melting point of 64 °C.

Take `CC(C)COc1nc(N)c2ncn(C3CCCCC3)c2n1`: the melting point was in the range of 123 to 134 °C.

Regarding `CC(=O)COc1cc(-n2c(=O)cc(C(F)(F)F)n(C)c2=O)c(F)cc1Cl`, the melting point is 164 to 166 °C.

`COc1ccc(N2CCCN(c3c(C)c(C)c4c(c3C)CC(C)(C)O4)CC2)cc1`: the melting point was 105 to 107 °C.

Compound `CN(C)c1cccc(CN2CC=C(c3c[nH]c4ccc(Cl)cc34)CC2)c1` yielded a melting point of 193 to 195 °C.

`CC(=O)c1cc(O)c(C)cc1O` gave a melting point of 144 to 146 °C.

With `NC(=O)c1cccc(-c2cccc(O)c2)c1`, the melting point was 148 to 151 °C.

As to `Clc1ccc(C(=Cc2ccc(Cl)cc2Cl)CBr)cc1`, the melting point is 128 °C.

In the case of `CN1Cc2c(C=NO)ncn2-c2ccc(F)cc2C1=O`, the melting point was 247 to 250 °C.

In turn, `Nc1cnc2ccc(Cl)cc2n1` had a melting point of 219 to 222 °C.

With `CC(C)(N)c1ccc(-c2nc(Nc3ccc(CCN4CCCCC4)cc3)ncc2C#N)cc1`, the melting point is 114 °C.

On to `O=C1c2ccccc2COc2ccc(O)cc21`, for which the melting point was in the range of 165 to 166 °C.

In turn, `OC1Oc2ccccc2-n2cnc(-c3noc(C4CC4)n3)c21` (stereo not drawn) returned a melting point of 230 to 234 °C.

Compound `CC(C)(C)NC(=O)NCc1cccc2c1C(=O)N(C1CCC(=O)NC1=O)C2=O` (stereo not drawn) displayed a melting point of 186 to 188 °C.

Compound `CON=C(C(=O)OC)c1nsc(N)n1` came in with a melting point of 172 to 174 °C.

In turn, `CCN(CC)c1ncc(C(=O)O)c2[nH]nc(C)c12` yielded a melting point of 85 to 88 °C.

`c1ccc(C2(n3ccnc3)c3ccccc3C(c3ccccc3)(n3ccnc3)c3ccccc32)cc1` (stereo not drawn): the melting point lay within 258 to 260 °C.

`CCOC(=O)C(C)(C)C(=O)C(Oc1ccc(Cl)cc1)n1ccnc1` (stereo not drawn) gave a melting point of 88 °C.

`COc1cccc(-n2ccc(=O)c(-c3ccnn3-c3ccccc3)n2)c1` showed a melting point of 110 to 111 °C.

In turn, `Cc1c(C(F)(F)F)ncn1-c1ncc(C(F)(F)F)cc1Cl` came in with a melting point of 59.4 °C.

Take `Cc1cccc(NC(=N)Nc2cccc(C)c2)c1`: the melting point was 105 to 106 °C.

The compound `CCCCn1c(=O)c2c(ncn2CCC(C)=O)n(CCCC)c1=O` returned a melting point of 86 to 87 °C.

As to `CC(C)(C)OC(=O)N1CCn2c(Cl)c(-c3cccc(C#N)c3)c(C(N)=O)c2C1`, the melting point lay in the range of 206 to 208 °C.

Compound `Nc1ccc(OCc2ccc3ccccc3n2)cc1` gave a melting point of 126 to 128 °C.

Compound `O=c1c2ccc(O)cc2[nH]c2c([N+](=O)[O-])ccc(Cl)c12` returned a melting point of 292 to 294 °C.

`CC(C)Oc1ccc(-c2nn(C(C)c3oc4ccccc4c(=O)c3-c3cccc(F)c3)c3ncnc(N)c23)cc1F` (stereo not drawn) gave a melting point of 204 to 206 °C.

Regarding `COc1ccc(C2Sc3cc(Sc4ccccc4)ccc3NC(=O)C2O)cc1` (stereo not drawn), the melting point was in the range of 195 to 198 °C.

`Cc1cc2cc(O)c(Cl)c(Cl)c2s1` displayed a melting point of 93 to 95 °C.

Compound `CC1(C)CC(O)CC(C)(C)N1CC(O)c1ccccc1` (stereo not drawn) registered a melting point of 123 °C.

As to `NC(=S)NC1CCCc2sccc21` (stereo not drawn), the melting point fell in the range of 129 to 131 °C.

Regarding `CCCCCC(=O)NCc1nc(-c2ccc3c(c2)Nc2ccccc2S3)cs1`, the melting point fell in the range of 192 to 194 °C.

Compound `COc1cc2c(cc1Nc1ncc(Cl)c(N[C@@H]3CCCC[C@H]3NS(C)(=O)=O)n1)CCN(CC(=O)N1CCCC1)CC2` showed a melting point of 120 to 135 °C.

The compound `COC(=O)c1ccc(Oc2ccc(Oc3ccccc3)cc2)cc1` came in with a melting point of 14 °C.

The compound `O=C(O)Cn1c(=O)c(=O)[nH]c2cc(C(F)(F)F)c(-n3ccc(CNCc4ccccc4)c3)cc21` returned a melting point above 300 °C.

Consider `CCNc1ccc(C(N)=O)cc1[N+](=O)[O-]`, for which the melting point worked out at 226 °C.

`Cc1cc2cc(CN3CCCC3)cnc2cc1NC(=O)c1ccc(-c2ccc(C(F)(F)F)cc2)cc1` gave a melting point of 216 to 219 °C.

As for `COc1cc2c(cc1/C=C/CCO)[nH]c1cc(-c3ccccc3Cl)c3c(c12)C(=O)NC3=O`, the melting point was in the range of 271 to 275 °C.

The compound `O=C(Nc1ccc(Cl)c(Cl)c1)NS(=O)(=O)c1ccc2c(c1)CCC2` yielded a melting point of 156 to 158 °C.

Regarding `CS(=O)c1nnc(-c2ccc3ncn(-c4ccc(OC(F)(F)F)cc4)c3c2)o1` (stereo not drawn), the melting point was in the range of 152 to 153 °C.

As to `C#Cc1ccc(C(=O)OCC)cn1`, the melting point is 35 °C.

The compound `CC(=O)Nc1ccc(C=O)cc1F` registered a melting point of 133 °C.

As for `COC(=O)c1cnc(C(=O)OC)c([N+](=O)[O-])c1`, the melting point was in the range of 82 to 86 °C.

`CCOc1nn(-c2ccc(C(F)(F)F)cn2)cc1CCCOc1nn(-c2ccccc2)cc1CC(=O)O` displayed a melting point of 117 to 118 °C.

`CN(C(N)=O)c1cc(C(C)(C)C)on1` showed a melting point of 134 to 135 °C.

In turn, `Cc1ccc(OC(C(=O)OC2CC(O)C=C3C=CC(C)C(CCC4CC(O)CC(=O)O4)C32)c2ccccc2)cc1` (mixture of isomers) had a melting point of 130 to 133 °C.

For `Cc1nnsc1C(=O)Nc1ccc(-n2nc(C3CC3)cc2C2CC2)c(F)c1`, the melting point lay in the range of 148 to 152 °C.

For `O=[N+]([O-])c1ccc2c(c1)C(n1ccccc1=S)=CC(CF)(CF)O2`, the melting point was in the range of 209 to 210 °C.

Compound `COc1cc(CNC(=O)c2cc3c(=O)n(Cc4ccc([N+](=O)[O-])nc4)c(=O)n(C)c3s2)ccn1` displayed a melting point of 200 to 207 °C.

Turning to `CCC1CC(=O)CC2CCC3C4CCC(OC(C)=O)C4(C)CCC3C12C` (stereo not drawn), the melting point stood at 159 °C.

As to `CC(=O)CC(=O)Nc1cccc(OC(C)=O)c1`, the melting point amounted to 101 °C.

`CCOC(=O)CC(=O)CC(O)/C=C/c1c(-c2ccccc2)ccnc1C` (stereo not drawn) showed a melting point of 83 to 84 °C.

`O=C(CCCCCNC(=O)C(c1ccccc1)c1ccccc1)NO`: the melting point fell in the range of 55 to 56 °C.
